Measured values taken from PubChem BioAssay AID1745844 (Carcinogenic Potency Database (CPDB), 2022).
Activity calls are given as the source filed them. How the calls were made is not given here.

System: rodent lifetime carcinogenesis bioassay, tumor incidence TD50
Assay: chronic cancer bioassays in animals – CPDB, compiled studies (AID 1745844)

In the case of O=C1c2ccccc2C(=O)N1SC(Cl)(Cl)Cl, the carcinogen call (mouse, strain B6AKF1, females, oral dosing, site: any site (literature study), lesion: several types, types named in the paper, dosed 76 weeks, study length 76 weeks) is reported as “negative (inactive)”, the carcinogen call (mouse, strain B6AKF1, females, oral dosing, site: liver, lesion: hepatoma, dosed 76 weeks, study length 76 weeks) is reported as “negative (inactive)” and the carcinogen call (mouse, strain B6AKF1, females, oral dosing, site: lung, lesion: adenoma, dosed 76 weeks, study length 76 weeks) is reported as “negative (inactive)”. The carcinogen call (mouse, strain B6AKF1, males, oral dosing, site: any site (literature study), lesion: several types, types named in the paper, dosed 76 weeks, study length 76 weeks) was “negative (inactive)”, the TD50 (mouse, strain B6AKF1, males, oral dosing, site: liver, lesion: hepatoma, dosed 76 weeks, study length 76 weeks) was 8230 mg/kg/day (inactive) and the carcinogen call (mouse, strain B6AKF1, males, oral dosing, site: lung, lesion: adenoma, dosed 76 weeks, study length 76 weeks) was “negative (inactive)”. It also gave a TD50 (mouse, strain B6C3F1, females, in feed, site: all sites, lesion: malignant lymphoma, dosed 104 weeks, study length 104 weeks) of 2200 mg/kg/day, a TD50 (mouse, strain B6C3F1, females, in feed, site: duodenum, lesion: adenocarcinoma, dosed 104 weeks, study length 104 weeks) of 2090 mg/kg/day and a TD50 (mouse, strain B6C3F1, females, in feed, site: duodenum, lesion: adenoma, dosed 104 weeks, study length 104 weeks) of 29200 mg/kg/day. The TD50 (mouse, strain B6C3F1, females, in feed, site: duodenum, lesion: several types, types named in the paper, dosed 104 weeks, study length 104 weeks) was 1670 mg/kg/day, the TD50 (mouse, strain B6C3F1, females, in feed, site: liver, lesion: several types, types named in the paper, dosed 104 weeks, study length 104 weeks) was 18900 mg/kg/day and the TD50 (mouse, strain B6C3F1, females, in feed, site: stomach, nonglandular, lesion: several types, types named in the paper, dosed 104 weeks, study length 104 weeks) was 6000 mg/kg/day. For the same molecule, the TD50 (mouse, strain B6C3F1, females, in feed, site: stomach, nonglandular, lesion: squamous-cell papilloma, dosed 104 weeks, study length 104 weeks) was 5780 mg/kg/day, the TD50 (mouse, strain B6C3F1, females, oral dosing, site: any site (literature study), lesion: several types, types named in the paper, dosed 76 weeks, study length 76 weeks) was 260 mg/kg/day (inactive) and the carcinogen call (mouse, strain B6C3F1, females, oral dosing, site: liver, lesion: hepatoma, dosed 76 weeks, study length 76 weeks) was “negative (inactive)”. For the same molecule, the carcinogen call (mouse, strain B6C3F1, females, oral dosing, site: lung, lesion: several types, types named in the paper, dosed 76 weeks, study length 76 weeks) was “negative (inactive)”, the TD50 (mouse, strain B6C3F1, males, in feed, site: duodenum, lesion: adenocarcinoma, dosed 104 weeks, study length 104 weeks) was 981 mg/kg/day and the TD50 (mouse, strain B6C3F1, males, in feed, site: duodenum, lesion: adenoma, dosed 104 weeks, study length 104 weeks) was 23000 mg/kg/day. It also gave a TD50 (mouse, strain B6C3F1, males, in feed, site: duodenum, lesion: several types, types named in the paper, dosed 104 weeks, study length 104 weeks) of 899 mg/kg/day, a TD50 (mouse, strain B6C3F1, males, in feed, site: stomach, nonglandular, lesion: several types, types named in the paper, dosed 104 weeks, study length 104 weeks) of 5460 mg/kg/day and a TD50 (mouse, strain B6C3F1, males, in feed, site: stomach, nonglandular, lesion: squamous-cell carcinoma, dosed 104 weeks, study length 104 weeks) of 13100 mg/kg/day. The TD50 (mouse, strain B6C3F1, males, in feed, site: stomach, nonglandular, lesion: squamous-cell papilloma, dosed 104 weeks, study length 104 weeks) was 12900 mg/kg/day, the TD50 (mouse, strain B6C3F1, males, oral dosing, site: any site (literature study), lesion: several types, types named in the paper, dosed 76 weeks, study length 76 weeks) was 87.7 mg/kg/day (inactive) and the TD50 (mouse, strain B6C3F1, males, oral dosing, site: liver, lesion: hepatoma, dosed 76 weeks, study length 76 weeks) was 242 mg/kg/day (inactive). For the same molecule, the TD50 (mouse, strain B6C3F1, males, oral dosing, site: lung, lesion: adenoma, dosed 76 weeks, study length 76 weeks) was 156 mg/kg/day (inactive), the TD50 (mouse, strain Charles River CD1, females, in feed, site: digestive tract, lesion: several types, types named in the paper, dosed 112 weeks, study length 112 weeks) was 2380 mg/kg/day and the TD50 (mouse, strain Charles River CD1, females, in feed, site: duodenum, lesion: adenocarcinoma, dosed 112 weeks, study length 112 weeks) was 3310 mg/kg/day. It also gave a TD50 (mouse, strain Charles River CD1, females, in feed, site: duodenum, lesion: adenoma, dosed 112 weeks, study length 112 weeks) of 7280 mg/kg/day, a TD50 (mouse, strain Charles River CD1, males, in feed, site: digestive tract, lesion: several types, types named in the paper, dosed 112 weeks, study length 112 weeks) of 2190 mg/kg/day and a TD50 (mouse, strain Charles River CD1, males, in feed, site: duodenum, lesion: adenocarcinoma, dosed 112 weeks, study length 112 weeks) of 2400 mg/kg/day. It also gave a TD50 (mouse, strain Charles River CD1, males, in feed, site: duodenum, lesion: adenoma, dosed 112 weeks, study length 112 weeks) of 10300 mg/kg/day, a TD50 (mouse, strain Charles River CD1, males, in feed, site: stomach, nonglandular, lesion: papilloma, dosed 112 weeks, study length 112 weeks) of 13400 mg/kg/day and a TD50 (rat, strain Charles River CD (Sprague-Dawley), males, in feed, site: testis, lesion: interstitial-cell tumor, dosed 104 weeks, study length 104 weeks) of 839 mg/kg/day. It also gave a TD50 (rat, strain Charles River CD (Sprague-Dawley), males, in feed, site: thyroid gland, lesion: several types, types named in the paper, dosed 104 weeks, study length 104 weeks) of 2940 mg/kg/day, a TD50 (rat, strain Fischer 344, females, in feed, site: all sites, lesion: malignant lymphoma, dosed 104 weeks, study length 104 weeks) of 947 mg/kg/day and a TD50 (rat, strain Fischer 344, males, in feed, site: all sites, lesion: malignant lymphoma, dosed 104 weeks, study length 104 weeks) of 1070 mg/kg/day.
With COc1cc(/C=C/C(=O)OCCc2ccccc2)ccc1O the carcinogen call (rat, strain Fischer 344, males, in feed, site: colon, lesion: one or several types, types not named, dosed 55 weeks, study length 55 weeks) was “negative (inactive)”.
